Results as given in paper PMC6222425, “Novel 5′-Norcarbocyclic Derivatives of Bicyclic Pyrrolo- and Furano[2,3-d]Pyrimidine Nucleosides” (Molecules : A Journal of Synthetic Chemistry and Natural …, 2018).
Like-named read-outs stand apart in the source and are kept apart here.

What was measured:
[1] = system: A549 (human lung adenocarcinoma) cells; test: Cell viability analysis by MTT assay, A549; assay type: cell-based; details: for IC50: Homo sapiens, A549, MTT, 48 h incubation, read-out: Antiproliferative activity, IC50, A549; for Selectivity index, A549: ratio of IC50 on normal hFF3 cells to IC50 of A549
Experimental: (§1) The target compounds were tested on different lines of tumor cells, HuTu-80 (human duodenal cancer), B16 (mouse melanoma), A549 (human lung adenocarcinoma), KB-3-1 (human squamous cell carcinoma), HeLa (human squamous cell carcinoma of the cervix), as well as on human noncancer cells hFF3.
(§2) Human KB-3-1 epidermoid carcinoma cell line, human HeLa cervical epithelioid carcinoma cell line, human HuTu-80 duodenal cancer cells, human A549 lung carcinoma epithelial cells, mouse B16 melanoma cell line and human hFF3 fibroblast cells were obtained from the Russian Cell Culture Collection (St. Petersburg, Russia) and were cultured in DMEM (hFF3 cells in IMDM) supplemented with 10% (v/v) heat-inactivated fetal bovine serum, penicillin (100 U mL^−1), streptomycin (100 µg mL^−1) and amphotericin ([…]). Cells were maintained in a humidified atmosphere of 5% CO2 at 37 °C.
(§3) All compounds were dissolved in dimethylsulfoxide (DMSO) and stock solutions (10 mmol L^−1) were stored at −20 °C.
(§4) Cells growing in the logarithmic phase were seeded in triplicate in 96-well plates at a density of 5 × 10^3 cells per well for HeLa and HuTu-80 cells, 7 × 10^3 cells per well for KB-3-1 and hFF3, 10 × 10^3 for A549 and 20 × 10^3 for B16. The plates were incubated at 37 °C in a humidified 5% CO2 atmosphere. Cells were allowed to adhere to the surface for 24 h and then tested compounds were added at different concentrations and incubation was continued for 48 h. Then [3-(4,5-dimethylthiazol-2-yl)-2,5-diphenyltetrazolium bromide] (MTT) solution (10 µL, 5 mg mL^−1) was added to each well and the incubation was continued for an additional 3 h. The dark blue formazan crystals formed within the healthy cells were solubilized with DMSO and the absorbance was measured using a Multiscan RC plate reader at 570 nm. The IC50 was determined as the compound concentration required to decrease the A570 to 50% compared to the control (no tested compounds, DMSO) and was determined by interpolation from dose-response curves.

[2] = system: HeLa (human cervical epithelioid carcinoma) cells; test: Cell viability analysis by MTT assay, HeLa; assay type: cell-based; details: for IC50: Homo sapiens, HeLa, MTT, 48 h incubation, read-out: Antiproliferative activity, IC50, HeLa; for Selectivity index, HeLa: ratio of IC50 on normal hFF3 cells to IC50 of HeLa
Experimental: as §1, §2, §3, §4

[3] = system: HuTu-80 (human duodenal cancer) cells; test: Cell viability analysis by MTT assay, HuTu-80; assay type: cell-based; details: for IC50: Homo sapiens, HuTu80, MTT, 48 h incubation, read-out: Antiproliferative activity, IC50, HuTu80; for Selectivity index, HuTu80: ratio of IC50 on normal hFF3 cells to IC50 of HuTu80
Experimental: as §1, §2, §3, §4

tumor cells = test: Cell viability MTT assay, statements on the tumor cell panel as a whole; assay type: cell-based; details: for Toxic effect on tumor cells: concentrations up to 100 μM
Experimental: as §1, §2, §4

[4] = system: B16 (mouse melanoma) cells; test: Cell viability analysis by MTT assay, B16; assay type: cell-based; details: for IC50: MTT, 48 h incubation, read-out: Antiproliferative activity, IC50, B16; for Selectivity index, B16: ratio of IC50 on normal hFF3 cells to IC50 of B16
Experimental: as §1, §2, §3, §4

[5] = system: human noncancer cells hFF3 (fibroblasts); test: Cell viability analysis by MTT assay, normal hFF3 cells; assay type: cell-based; details: for IC50: Homo sapiens, HFF-3, 48 h, normal cells, MTT, 48 h incubation, read-out: Antiproliferative activity, IC50, hHFF3; for Toxic effect on normal hFF3 cells: concentrations up to 100 μM
Experimental: as §1, §2, §3, §4

[6] = system: KB-3-1 (human epidermoid carcinoma) cells; test: Cell viability analysis by MTT assay, KB-3-1; assay type: cell-based; details: for IC50: Homo sapiens, KB 3-1, 48 h, MTT, 48 h incubation, read-out: Antiproliferative activity, IC50, KB-3-1; for Selectivity index, KB-3-1: ratio of IC50 on normal hFF3 cells to IC50 of KB-3-1
Experimental: as §1, §2, §3, §4

KB-3-1 cells [7] = test: Apoptosis detection by Annexin V/PI staining, flow cytometry; assay type: cell-based, human; details: 48 h
Experimental: To examine whether the tested 5′-norcarbocyclic derivatives induce cell death via apoptosis Annexin V and propidium iodide analysis were used (Figure 1). […] Annexin V binds phosphatidylserine residues, which are asymmetrically distributed toward the inner plasma membrane, and migrate to the outer plasma membrane during apoptosis.
Exponentially growing KB-3-1 cells in 6–well plates (5 × 10^5 cells per well) were treated with 3i (5, 10 and 20 µM) or with 0.1% (v/v) DMSO as a control for 48 h. The cells were stained with Annexin V-FITC and propidium iodide by the Annexin-FITC apoptosis staining/detection kit (Abcam) according to the instruction of the manufacturer. Briefly, cells were collected by scrapping, washed twice with cold PBS, and centrifuged (400 g, 5 min). Cells were resuspended in binding buffer (500 µL) and Annexin V–FITC (5 µL) and PI (5 µL) were added. Cells were incubated for 5 min at 20 °C in the dark. Finally, binding buffer (300 µL) was added to each tube, and the amount of apoptotic cells in samples were analyzed by flow cytometry. For each sample, 10,000 ungated events were acquired. Annexin V + PI − cells represent the early apoptotic populations. Annexin V + PI + cells represent either late apoptotic or secondary necrotic populations.

KB-3-1 cells [8] = test: Mitochondria depolarization analysis, JC-1 staining, flow cytometry; assay type: cell-based, human; details: 20 µM, KB-3-1, control 0.1% DMSO
From the text: We next investigated whether 3i utilizes the mitochondrial ‘intrinsic’ pathway in the apoptotic death of KB-3-1 cells, since the pivotal role of mitochondria in triggering apoptosis is well established. We evaluated the mitochondrial transmembrane potential (∆Ψm) in KB-3-1 cells exposed to 3i using cytofluorometric analysis. Cells were stained with the specific mitochondrial cationic dye JC-1 (5,5′,6,6′-tetrachloro-1,1′,3,3′-tetraethyl benzimidazole carbocyanine iodide) that accumulates in the transmembrane space of polarized mitochondria and forms the so–called «J–aggregates», emitting red fluorescence. A decrease in ∆Ψm results in disappearance of J–aggregates and formation of JC-1 monomers, which emit in a green fluorescence.
Mitochondria involvement in apoptosis was measured by mitochondrial depolarization occurring early during onset of apoptosis. KB-3-1 cells were incubated with 3i (5, 10 and 20 µM) or 0.1% (v/v) DMSO as a control for 48 h. Then, cells were collected and incubated in complete media in the dark with mitochondrial potential sensor JC-1 (5 µg mL^−1) at 37 °C for 30 min, washed with cold PBS and resuspended in PBS (400 µL). Fluorescences of J–aggregate and J–monomer were recorded in the fluorescence channels 2 (FL2) and 1 (FL1), respectively, with flow cytometer «FC500». […]

SMILES	IC50 [1] [µM]	IC50 [2] [µM]	IC50 [3] [µM]	IC50 ([4]; Mus musculus, 48 h) [µM]	IC50 [6] [µM]	IC50 [4] [µM]	Toxic effect on tumor cells (tumor cells)	IC50 [5] [µM]	Toxic effect on normal hFF3 cells [5]	Apoptotic cells (KB-3-1 cells [7]; 5 µM) [%]	Apoptotic cells (KB-3-1 cells [7]; 20 µM) [%]	Selectivity index, A549 [1]	Selectivity index, HeLa [2]	Selectivity index, HuTu80 [3]	Red fluorescence value (JC-1 J-aggregates) as compared to the control (KB-3-1 cells [8])	Selectivity index value (tumor cells; depending on the nature and origin of tumor cells)	Selectivity index, B16 [4]	Selectivity index, KB-3-1 [6]
CCCCCc1cc2cn(C3C=CC(O)C3)c(=O)nc2o1 (centres unmarked) [Compound 3b, 1-(4′-Hydroxy-2′-cyclopenten-1′-yl)-6-pentyl-3H-furano[2,3-d]-pyrimidine-2-one]	> 100	> 100	> 100	> 100	> 100	–	no toxic effect	> 100	no toxic effect	–	–	–	–	–	–	–	–	–
CCCc1cc2cn(C3C=CC(O)C3)c(=O)nc2[nH]1 (centres unmarked) [Compound 4a, 1-(4′-Hydroxy-2′-cyclopenten-1′-yl)-6-propyl-3H-pyrrolo[2,3-d]-pyrimidine-2-one]	> 100	> 100	> 100	> 100	> 100	–	no toxic effect	> 100	no toxic effect	–	–	–	–	–	–	–	–	–
CCCCCCCCCCc1cc2cn(C3CC(O)C(O)C3O)c(=O)nc2o1 (centres unmarked) [Compound 5, 1-(2′,3′,4′-Trihydroxycyclopent-1′-yl)-6-decyl-3H-furano[2,3-d]-pyrimidine-2-one]	> 100	70.2 ± 8.9	> 100	> 100	50.3 ± 9.8	–	–	> 100	not toxic	–	–	–	>1.4	–	–	–	–	>2

These reach a lower IC50 [1]. Values come first.

IC50 [1] [µM]	IC50 [2] [µM]	IC50 [3] [µM]	IC50 ([4]; Mus musculus, 48 h) [µM]	IC50 [6] [µM]	IC50 [4] [µM]	SMILES	Toxic effect on tumor cells (tumor cells)	IC50 [5] [µM]	Toxic effect on normal hFF3 cells [5]	Apoptotic cells (KB-3-1 cells [7]; 5 µM) [%]	Apoptotic cells (KB-3-1 cells [7]; 20 µM) [%]	Selectivity index, A549 [1]	Selectivity index, HeLa [2]	Selectivity index, HuTu80 [3]	Red fluorescence value (JC-1 J-aggregates) as compared to the control (KB-3-1 cells [8])	Selectivity index value (tumor cells; depending on the nature and origin of tumor cells)	Selectivity index, B16 [4]	Selectivity index, KB-3-1 [6]
47.5 ± 5.8	6.5 ± 0.9	5.1 ± 0.6	21	8.2 ± 1.3	21.3 ± 2.9	CCCCCc1ccc(-c2cc3cn(C4C=CC(O)C4)c(=O)nc3o2)cc1 (centres unmarked) [Compound 3i, 1-(4′-Hydroxy-2′-cyclopenten-1′-yl)-6-(4-pentylphenyl)-3H-furano[2,3-d]-pyrimidine-2-one]	–	> 100	not toxic	26	55.3	>2.1	>15.3	>19.6	decrease	15–20	>4.7	>12.2
15.6 ± 4.1	11.1 ± 0.9	8.5 ± 1.1	13.4 ± 3.2	9.8 ± 0.7	–	CCCCCc1ccc(-c2cc3cn(C4C=CC(O)C4)c(=O)nc3[nH]2)cc1 (centres unmarked) [Compound 4i, 1-(4′-Hydroxy-2′-cyclopenten-1′-yl)-6-(4-pentylphenyl)-3H-pyrrolo[2,3-d]-pyrimidine-2-one]	–	21.9 ± 4.8	–	–	–	1.4	1.9	2.6	–	–	1.6	2.2
